Results: patent US20240124412A1, “IKAROS ZINC FINGER FAMILY DEGRADERS AND USES THEREOF” (Gilead Sciences, Inc., priority 2021, published 2024)

Assays:
IKZF1 = target: T1, IKZF1 (Homo sapiens, UniProt Q13422+Q96SW2); assay: HiBiT protein tagging assay, in vitro IKZF1 degradation (HEK293); assay type: cell-based; details: HEK293, 18-24 hr incubation, normalized to DMSO control; for DC50: read-out: IKZF1 EC50; for Dmax: read-out: IKZF1 Dmax (maximum degradation at the highest concentration tested)
T1 construct: expressed in transfected cells
T1 sequence (Q13422 whole entry): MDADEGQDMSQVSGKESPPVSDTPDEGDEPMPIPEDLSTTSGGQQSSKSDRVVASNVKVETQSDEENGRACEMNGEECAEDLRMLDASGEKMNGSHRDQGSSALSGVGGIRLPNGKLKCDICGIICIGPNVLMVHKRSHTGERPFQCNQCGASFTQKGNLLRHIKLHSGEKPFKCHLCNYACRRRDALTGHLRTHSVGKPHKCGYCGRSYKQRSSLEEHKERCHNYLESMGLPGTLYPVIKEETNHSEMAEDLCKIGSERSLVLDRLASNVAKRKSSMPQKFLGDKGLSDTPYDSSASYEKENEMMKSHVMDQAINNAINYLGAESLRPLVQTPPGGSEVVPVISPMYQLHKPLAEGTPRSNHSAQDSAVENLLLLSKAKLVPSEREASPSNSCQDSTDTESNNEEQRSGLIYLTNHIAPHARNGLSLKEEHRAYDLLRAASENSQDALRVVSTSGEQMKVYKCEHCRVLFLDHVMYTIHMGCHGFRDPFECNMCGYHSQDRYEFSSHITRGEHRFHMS
T1 sequence (Q96SW2 whole entry): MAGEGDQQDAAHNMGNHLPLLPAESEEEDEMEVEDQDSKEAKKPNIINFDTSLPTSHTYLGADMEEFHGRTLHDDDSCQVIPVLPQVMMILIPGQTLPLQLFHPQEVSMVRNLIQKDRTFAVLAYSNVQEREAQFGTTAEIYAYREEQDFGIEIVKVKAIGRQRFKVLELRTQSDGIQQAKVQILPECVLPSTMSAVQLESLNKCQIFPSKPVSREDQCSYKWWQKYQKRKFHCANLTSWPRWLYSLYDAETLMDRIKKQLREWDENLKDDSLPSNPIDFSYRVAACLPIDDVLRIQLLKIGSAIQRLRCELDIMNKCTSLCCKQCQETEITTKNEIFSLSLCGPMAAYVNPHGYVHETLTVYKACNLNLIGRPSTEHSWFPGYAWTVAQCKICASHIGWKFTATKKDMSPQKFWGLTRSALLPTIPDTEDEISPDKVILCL
T1 sequence (Q16531 whole entry partner): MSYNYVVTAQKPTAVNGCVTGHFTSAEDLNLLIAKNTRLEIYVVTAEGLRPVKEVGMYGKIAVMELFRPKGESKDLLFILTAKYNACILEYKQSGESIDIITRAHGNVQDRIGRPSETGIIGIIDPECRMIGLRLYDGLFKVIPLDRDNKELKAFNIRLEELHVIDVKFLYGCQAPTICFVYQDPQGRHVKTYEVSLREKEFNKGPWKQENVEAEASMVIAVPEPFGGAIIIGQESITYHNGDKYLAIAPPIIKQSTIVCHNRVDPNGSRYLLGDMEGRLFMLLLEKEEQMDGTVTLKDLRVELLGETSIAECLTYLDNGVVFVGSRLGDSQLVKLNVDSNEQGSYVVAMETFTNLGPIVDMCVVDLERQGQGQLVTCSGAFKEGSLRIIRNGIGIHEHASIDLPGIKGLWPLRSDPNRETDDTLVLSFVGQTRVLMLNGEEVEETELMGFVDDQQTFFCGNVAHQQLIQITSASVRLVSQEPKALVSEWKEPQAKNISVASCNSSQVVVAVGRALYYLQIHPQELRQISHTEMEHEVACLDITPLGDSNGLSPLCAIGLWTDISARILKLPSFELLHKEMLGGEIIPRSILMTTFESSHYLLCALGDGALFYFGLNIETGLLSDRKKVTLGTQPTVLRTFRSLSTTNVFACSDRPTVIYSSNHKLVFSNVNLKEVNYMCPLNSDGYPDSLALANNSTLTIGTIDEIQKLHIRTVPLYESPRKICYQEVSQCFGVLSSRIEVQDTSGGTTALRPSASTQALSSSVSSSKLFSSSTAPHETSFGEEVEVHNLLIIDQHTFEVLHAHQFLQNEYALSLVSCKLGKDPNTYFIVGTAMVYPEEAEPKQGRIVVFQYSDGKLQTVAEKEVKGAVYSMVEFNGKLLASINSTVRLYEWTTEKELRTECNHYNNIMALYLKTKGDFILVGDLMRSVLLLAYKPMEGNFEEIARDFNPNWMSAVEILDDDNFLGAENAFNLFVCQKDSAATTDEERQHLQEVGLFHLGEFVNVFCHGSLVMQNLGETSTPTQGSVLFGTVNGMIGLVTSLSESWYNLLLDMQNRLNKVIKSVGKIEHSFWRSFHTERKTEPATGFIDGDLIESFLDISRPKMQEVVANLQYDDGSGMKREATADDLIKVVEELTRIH
Procedure, shortened: (§1)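 Flp-In T-REx HEK293 pools stably expressing C-terminal HiBiT-tagged IKZF1 or IKZF2 were induced overnight with 1 μg/ml doxycycline. Cells were then treated with serially diluted compound for 18-24 hr at 37 °C and read by Nano-Glo lytic luminescence. Data were normalized to 0.5% DMSO as POC; EC50 and Dmax (maximum degradation at highest concentration tested) reported.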

IKZF2 = target: T2, IKZF2 (Homo sapiens, UniProt Q96SW2+Q9UKS7); assay: HiBiT protein tagging assay, in vitro IKZF2 degradation (HEK293); assay type: cell-based; details: HEK293, 18-24 hr incubation, normalized to DMSO control; for Dmax: HEK293, HiBiT assay, read-out: IKZF2 Dmax (maximum degradation at the highest concentration tested); for DC50: HiBiT assay, read-out: IKZF2 EC50
T2 construct: expressed in transfected cells
T2 sequence (Q9UKS7 1-500 isoform Q9UKS7-2): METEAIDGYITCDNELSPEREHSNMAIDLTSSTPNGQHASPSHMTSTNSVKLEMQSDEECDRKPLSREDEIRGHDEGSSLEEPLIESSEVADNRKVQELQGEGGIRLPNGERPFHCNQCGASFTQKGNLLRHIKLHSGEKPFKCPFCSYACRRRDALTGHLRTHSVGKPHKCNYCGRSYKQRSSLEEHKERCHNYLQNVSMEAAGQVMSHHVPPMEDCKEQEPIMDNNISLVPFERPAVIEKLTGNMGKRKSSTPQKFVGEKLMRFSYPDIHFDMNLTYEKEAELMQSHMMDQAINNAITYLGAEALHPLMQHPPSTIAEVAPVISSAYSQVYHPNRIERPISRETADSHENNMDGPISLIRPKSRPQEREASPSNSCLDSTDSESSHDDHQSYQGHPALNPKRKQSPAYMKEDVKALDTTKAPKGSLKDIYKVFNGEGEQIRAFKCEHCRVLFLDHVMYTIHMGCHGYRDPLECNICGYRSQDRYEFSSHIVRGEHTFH
T2 sequence (Q96SW2 whole entry): as the sequence (Q96SW2 whole entry) above
T2 sequence (Q16531 whole entry partner): as the sequence (Q16531 whole entry partner) above
Procedure, shortened: as §1

DC50 (IKZF1) | Dmax (IKZF2) | DC50 (IKZF2) | Dmax (IKZF1) | Compound
> 1000 nM | 66% | 243 nM |  | O=C1CCC(N2Cc3cc(CNC45CCCC(O)(C4)C5)ccc3C2=O)C(=O)N1 (centres unmarked) [Example 143]
609 nM | 91% | 361 nM | 44% | N#CC[C@H]1CC[C@H](NCc2ccc3c(c2)CN(C2CCC(=O)NC2=O)C3=O)CC1 (some centres unmarked) [Example 63]
> 10000 nM | 21% | 3300 nM |  | O=C1CCC(N2Cc3cc(CN[C@H]4CCCC[C@@H]4O)ccc3C2=O)C(=O)N1 (stereo partly drawn) [Example 38, 3-(5-((((1S,2S)-2-hydroxycyclohexyl)amino)methyl)-1-oxoisoindolin-2-yl)piperidine-2,6-dione]
> 1000 nM | 47% | 293 nM |  | COCC1(NCc2ccc3c(c2)CN(C2CCC(=O)NC2=O)C3=O)CCCCC1 (centres unmarked) [Example 154, 3-(5-(((1-(methoxymethyl)cyclohexyl)amino)methyl)-1-oxoisoindolin-2-yl)piperidine-2,6-dione]
> 10000 nM | 37% | 4100 nM |  | O=C1CCC(N2Cc3cc(CN[C@H]4CCCC[C@H]4CO)ccc3C2=O)C(=O)N1 (stereo partly drawn) [Example 39, 3-(5-((((1S,2R)-2-(hydroxymethyl)cyclohexyl)amino)methyl)-1-oxoisoindolin-2-yl)piperidine-2,6-dione]
> 10000 nM | 38% | 1200 nM |  | O=C1CCC(N2Cc3cc(CN[C@@H]4CCCC[C@H]4O)ccc3C2=O)C(=O)N1 (stereo partly drawn) [Example 40, 3-(5-((((1R,2R)-2-hydroxycyclohexyl)amino)methyl)-1-oxoisoindolin-2-yl)piperidine-2,6-dione]
222 nM | 22% | 525 nM | 23% | O=C1CCC(N2Cc3cc(CN[C@H](CO)Cc4ccccc4)ccc3C2=O)C(=O)N1 (some centres unmarked) [Example 56]
107 nM | 71% | 157 nM | 23% | C[C@@H]1CCCC[C@H]1NCc1ccc2c(c1)CN(C1CCC(=O)NC1=O)C2=O (some centres unmarked) [Example 101]
99 nM | 95% | 204 nM | 93% | O=C1CCC(N2Cc3cc(CN[C@@H]4CCC[C@H]([C@H](O)c5ccccc5)C4)ccc3C2=O)C(=O)N1 (some centres unmarked) [Example 136]
32 nM | 78% | 64 nM | 71% | O=C1CCC(N2Cc3cc(CN[C@H]4CCCc5ccccc54)ccc3C2=O)C(=O)N1 (stereo partly drawn) [Example 43, 3-(1-oxo-5-((((S)-1,2,3,4-tetrahydronaphthalen-1-yl)amino)methyl)isoindolin-2-yl)piperidine-2,6-dione]
137 nM | 88% | 97 nM | 50% | COC(=O)C1(C)CCCC(NCc2ccc3c(c2)CN(C2CCC(=O)NC2=O)C3=O)C1 (centres unmarked) [Example 144]
172 nM | 81% | 151 nM | 26% | CC1(NCc2ccc3c(c2)CN(C2CCC(=O)NC2=O)C3=O)CCCC1 (centres unmarked) [Example 151, 3-(5-(((1-methylcyclopentyl)amino)methyl)-1-oxoisoindolin-2-yl)piperidine-2,6-dione]
46 nM | 75% | 160 nM | 73% | O=C1CCC(N2Cc3cc(CN[C@@H]4CCCC[C@H]4Cc4ccccc4)ccc3C2=O)C(=O)N1 (some centres unmarked) [Example 67]
7 nM | 94% | 39 nM | 95% | O=C1CCC(N2Cc3cc(CNC4CCN(C(=O)OCc5ccccc5)CC4)ccc3C2=O)C(=O)N1 (centres unmarked) [Example 3, benzyl 4-(((2-(2,6-dioxopiperidin-3-yl)-1-oxoisoindolin-5-yl)methyl)amino)piperidine-1-carboxylate]
 | 29% | 1400 nM | 27% | O=C1CCC(N2Cc3cc(CNC4CCN(Cc5ccccc5)C(=O)C4)ccc3C2=O)C(=O)N1 (centres unmarked) [Example 61]
335 nM | 78% | 453 nM | 51% | CC1(C)C[C@]2(CC[C@@H](NCc3ccc4c(c3)CN(C3CCC(=O)NC3=O)C4=O)CC2)CO1 (some centres unmarked) [Example 118]
246 nM | 96% | 1300 nM | 77% | O=C1CCC(N2Cc3cc(CNC4CCN(C(=O)c5ccccc5)CC4)ccc3C2=O)C(=O)N1 (centres unmarked) [Example 57]
374 nM | 99% | 218 nM | 26% | O=C1CCC(N2Cc3cc(CNC45CCC(CO)(CC4)C5)ccc3C2=O)C(=O)N1 (centres unmarked) [Example 142]
23 nM | 43% | 48 nM | 35% | O=C1CCC(N2Cc3cc(CN[C@@H]4CCc5ccccc5C4)ccc3C2=O)C(=O)N1 (stereo partly drawn) [Example 14, 3-(1-oxo-5-((((R)-1,2,3,4-tetrahydronaphthalen-2-yl)amino)methyl)isoindolin-2-yl)piperidine-2,6-dione]
50 nM | 81% | 67 nM | 66% | O=C1CCC(N2Cc3cc(CNC4CCC5(CC4)CC5)ccc3C2=O)C(=O)N1 (centres unmarked) [Example 58]
68 nM | 95% | 1700 nM | 95% | O=C1CCC(N2Cc3cc(CNC4CCN(C(=O)NCc5ccccc5)CC4)ccc3C2=O)C(=O)N1 (centres unmarked) [Example 4, N-benzyl-4-(((2-(2,6-dioxopiperidin-3-yl)-1-oxoisoindolin-5-yl)methyl)amino)piperidine-1-carboxamide]
45 nM | 30% | 121 nM | 71% | O=C1CCC(N2Cc3cc(CNC4CC(c5ccccc5)CN(Cc5ccccc5)C4)ccc3C2=O)C(=O)N1 (centres unmarked) [Example 109, 3-(5-(((1-benzyl-5-phenylpiperidin-3-yl)amino)methyl)-1-oxoisoindolin-2-yl)piperidine-2,6-dione]
127 nM | 90% | 100 nM | 49% | CCCO[C@H]1CC[C@H](NCc2ccc3c(c2)CN(C2CCC(=O)NC2=O)C3=O)CC1 (some centres unmarked) [Example 75]
